Measurements from US20240277767A1, “METHODS AND USES” (PROLEUKOCYTE AB, priority 2021, published 2024).
“Also recorded” adds a separate entry of the source.

Tests used:
Assay type in all cases: cell-based, human
KADA TIL = experiment: Quantification of CD4+ T cells and Tregs in AUF pre-treated KADA TIL (flow cytometry); conditions: AUF 0.5 μg/mL
Method: Tregs were defined as CD3+CD4+ FoxP3+. Directly after the treatment, TIL were stimulated for six hours with PMA/Ionomycin or autologous tumor cells and then stained for intracellular cytokines IL-10 (C) and TGFβ (D).
Lymphocytes were pre-treated for 18 h with Auranofin (AUF, with the concentration 1 μg/mL for NK cells and 0.5 μg/mL for TIL. As AUF was reconstituted in DMSO, control NK cells were pre-treated with DMSO with an equivalent volume to the highest compound concentration. For N-acetylcysteine (NAC, Invitrogen) treatment, DMSO pre-treated cells were incubated for 1 h with 5 or 10 mM NAC prior to H2O2 treatment. For H2O2 treatment, lymphocytes were washed and resuspended to 1×10^6 cells/mL in RPMI containing the indicated H2O2 (Sigma-Aldrich) concentration for 1 h at 37° C. 5% CO2. Cells were washed with medium and then used for further experiments.
All antibodies (see Table 1 in Example 1) and FACS reagents were used according to manufacturers' recommendation, if not stated otherwise. Cells were stained with LIVE/DEAD™ Fixable Aqua Dead Cell Stain Kit (Invitrogen) and then stained with the respective antibodies for 20 min at 4 °C in PBS 1% FBS. Intracellular staining was performed using Fixation/Permeabilization Kit (BD Biosciences) following the manufacturer's instructions. […]

ANRU TIL [1] = experiment: ANRU TIL exposed to activated autologous monocytes: spheroid caspase activation and IFNγ release; conditions: for Caspase activity in spheroids co-cultured with TIL exposed to activated autologous monocytes: highest dose of AUF, vs untreated control TIL
Method: (§1) For Nrf2 inhibition, NK cells were treated with 50 μM ML-385 (Sigma-Aldrich) in parallel. For H2O2 treatment, lymphocyte cells were washed and resuspended to 1×10^6 cells/mL in medium and exposed to indicated H2O2 (Sigma-Aldrich) concentration for 1 h at 37° C. Cells were washed with medium and then used for further experiments. For monocyte experiments, autologous NK cell-monocytes or TIL-monocytes were used. NK cells/TIL were isolated and pre-treated with 0.5 μg/mL AUF, as described above, and co-cultured with unstimulated at the ratio, 1:2 M:NK, or stimulated monocytes at the ratio, 1:1 M:NK, if not indicated otherwise. Stimulated monocytes were activated with 100 ng/ml PMA for 1 min, washed and added at indicated ratio, the number of NK cell/TIL was kept constant. As control, H2O2 was used at indicated concentration. Cells were co-cultured for 2 h and then effector cells were stained for intracellular ROS (see flow cytometry) or used as effector cells in Cr^51 release assay (E:T ratio 10:1).
For cytokine release assay, NK cells and TIL were cultured with indicated tumour cells at the effector target ratio 4:1 (E:T) for 24 h in U-bottom plates. IFNγ secretion was measured using human IFN-γ ELISA development kit (Mabtech) following the manufacturer's instructions.
(§2) 5000 ANRU tumour cells were seeded per well in Ultra-Low Attachment 96-well plates (Corning Costar) in culture medium containing 2% Matrigel (Corning) for 3 days. 1×10^4AUF pre-treated TIL (see above), and spheroids were co-cultured and monitored for 48 h with the IncuCyte live cell imaging system (Essen Bioscience) in the presence of CellEvent™ Caspase 3/7 Green detection agent (Invitrogen).

[2] = test system: tumour infiltrating lymphocytes (TIL); experiment: [Cr51]-release assay: lysis of autologous tumour cells by pre-treated TIL
Method: Melanoma patient derived TIL and CD19 directed CAR T cells were generated as previously described (Magalhaes et al., 2018; Lövgren et al., 2020).
Lymphocytes were pre-treated for 18 h with Auranofin (AUF, with the concentration 1 μg/mL for NK cells and 0.5 μg/mL for TIL, if not indicated differently), DL-Sulforaphane (SUL) or Dimethyl Fumarate (DMF) (all Sigma-Aldrich) at indicated concentrations.
as §1
For cytotoxic assay, a standard 4 h [Cr^51]-release assay was used. Briefly, tumour cells were harvested and labeled with 51Cr (PerkinElmer) and used as target cells. Effector cells, NK cells and T cells, were co-cultured in 96-well V-bottom plate with indicated tumour cells at the stated effector target ratio (E:T). The supernatant was collected onto LUMA plates (Perkin-Elmer) and radioactivity/tumour cell lysis was detected by MicroBeta2 (Perkin Elmer). Target cell killing measured by % specific lysis and calculated using the formula: ((experimental release-spontaneous release)/(maximum release-spontaneous release))*100.

ANRU TIL [3] = experiment: 3D killing assay: ANRU TIL on autologous tumour spheroids (Caspase 3/7, live cell imaging); conditions: 48 h co-culture, vs controls
Method: as §2

SMILES: CC(=O)OC[C@H]1O[C@@H]([S-])[C@H](OC(C)=O)[C@@H](OC(C)=O)[C@@H]1OC(C)=O.CCP(CC)CC.[Au+] [AUF, Auranofin]
- Frequency of CD4+ T cells after AUF pre-treatment (KADA TIL): did not observe any increase
- Induction of regulatory T cells (CD3+CD4+FoxP3+) (KADA TIL; 0 h or 72 h post pre-treatment): do not induce regulatory T cells; also recorded: no induction of regulatory T cells could be detected
- Cytokine release (IFNγ) by TIL impaired by monocyte derived ROS (ANRU TIL [1]; 2D grown ANRU tumour cells): partially be rescued
- Caspase activity in spheroids co-cultured with TIL exposed to activated autologous monocytes (ANRU TIL [1]): increased caspase activity
- Caspase activity in spheroids co-cultured with TIL exposed to activated autologous monocytes (ANRU TIL [1]; listed as auranofin): increased elimination of spheroid grown tumour cells
- Lysis of autologous tumour cells by TIL after AUF removal ([2]; 0-72 h after AUF removal, H2O2): increased lysis of autologous tumour cells
- Specific lysis of autologous tumour cells by TIL ([2]; KADA, also in the absence of ROS): clearly higher
- Time after AUF withdrawal until which increased lysis by TIL lasted ([2]; highest AUF concentration): 72 h
- Capacity of ANRU TIL to induce apoptosis in spheroid tumour cells (Caspase 3/7) (ANRU TIL [3]): significantly increased capacity to induce apoptosis
